According to patent publication US9888679B2, “Protection of progenitor cells and regulation of their differentiation” (Proteobioactives Pty Ltd, priority 2007, dated 2018):
“Also recorded” adds a separate entry of the source.

Experiments:
[1] = tested on: human progenitor cells; experiment: Proteoglycan synthesis in micromass cultures, 5 days; type: cell-based; details: 5 day micromass; for proteoglycan synthesis / chondrogenic differentiation: dextran polysulfate 1-20 micrograms/mL, FIG. 19B; for proteoglycan synthesis (35SO4 incorporation into PGs): hyaluronan in place of PPS, FIG. 19A
From the text: FIG. 17. Bar graphs showing the concentration dependent effects of PPS on proteoglycan synthesis by human progenitor cells in micromass cultures for 5 days. Data is presented as 35S-GAG radioactivity and as a percentage of control taken as 100%. * P<0.05 relative to control.
FIG. 19. Bar graphs showing the concentration dependent effects of (A) Hyaluronan (Supartz™) and (B) Dextran Polysulfate on proteoglycan synthesis by human progenitor cells in micromass cultures for 5 days. Data is presented as ^35S-GAG radioactivity and as a percentage of control, taken as 100% or as DPM/ug DNA. * P<0.05 relative to control.
The technique used was based on that described by (Denker A E, Haas A R, Nicoll S B and Tuan R S. Chondrogenic differentiation of murine C3H10T1/2 multipotential progenitor cells: I. Stimulation by bone morphogenetic protein-2 in high density micromass cultures. Differentiation (1999); 64: 67-76). Briefly murine Progenitor cells (cell lines C3H10T1/2 or ATDC5) purchased from RIKEN Cell Bank (Tsukuba, Japan) or human immunoselected Stro-1+ Progenitor cells (Mesoblast Ltd, Melbourne, Australia) Ten microlitres (10 μl) of a suspension of the progenitor cells (1×10^7 cells/ml in Ham's F12 medium+10% FBS) were applied to individual wells of a 24-well plates. After incubatation at 37° C. in a humidified atmosphere of 5% CO2/95% air for 2-3 hours, 900 μl of Ham's F12 medium (10% FBS) and 100 μl of PPS solution in the same medium were added slowly into the wells to afford final concentrations of PPS in each of 0, 0.1, 0.5, 1.0, 2.5, 5.0, 10.0, 20.0 μg/ml alone or in combination with rhNC4 (0, 0.1, 0.5, 1.0, 2.5, 5.0, 10.0, 25.0 μg/ml). Each drug concentration was repeated in triplicate. The cells were maintained in culture for up to 10 days. The medium with/without drugs was changed every 3 days but 24 hours before termination of the experiment 80 μl of 50 μCi/ml ^35S-H2SO4 was added to achieve a final ^35SO4 concentration of 5 μCi/ml. The following day, the cells in one of the plates were trypsinized with 150 μl/well of 2.5% trypsin and separated from the medium by centrifugation at 800 g for 10 minutes, washed with 500 μl of 1×PBS and stored in liquid nitrogen for RNA and/or DNA extraction and analysis. Media and supernatants were combined in one tube for each concentration of PPS used. To the tubes was added, 200 μl of 5× Papain solution [2.5 mg/ml Papain, 7.9 mg/ml L-Cysteine in Papain buffer (0.1 M NaAC, 5 mM EDTA, pH6.0)] and the solution incubated at 65° C. for 2 hours. After papain digestion, Four aliquots of 200 μl of digested solution were transferred to a 96-well plate (200 μl/well). The ^35S-GAG released by the digestion step were separated from the free ^35SO4 by adding 20 μl 5% CPC and 10 μl 1 mg/ml CSA with gentle shaking at 300 rpm RT for 20-30 min to precipitate the ^35S-GAG-CPC complexes. The precipitates were collected by filtered through glass fibre filters using a cell harvester. The filters were then air-dried and discs punched to scintillation vials. 3 ml/vial scintillation cocktail liquid was added and vortexed for 30-45 sec. The radioactivity of ^35S—SO4 incorporated the ^35S-GAG-CPC complexes was measured by scintillation counting.
Data is presented as 35S-GAG radioactivity and as a percentage of control taken as 100%. * P<0.05 relative to control.
Similar experiments were undertaken using Hyaluronic acid (SuperArtz (SKK, Tokyo, Japan)) and Dextran polysulfate (MW=5000) (Sigma, Sydney, Australia) in place of PPS. […] Data is presented as 35S-GAG radioactivity and as a percentage of control taken as 100% or as DPM/ug DNA. * P<0.05 relative to control.

[2] = tested on: Murine ATDC5 cell line; experiment: Proteoglycan biosynthesis (35S-GAG) in pellet cultures; type: cell-based; details: FIG. 14; for chondrogenic effect / proteoglycan synthesis: Heparin 1.25-20 ug/mL, 6 day pellet culture
From the text: FIG. 12. A bar graph of the concentration dependent effects of Pentosan Polysulfate (PPS), on the biosynthesis of Proteoglycans (PGs) as determined by the incorporation of radioactively labelled sulfate into the sulfated glycosaminoglycans (^35S-GAG) of PGs in 6 day pellet cultures of murine progenitor cells (ADTC-5). *=p<0.05 relative to control.
FIG. 22. A bar graph of the concentration dependent effects of rhNC4 (batch PBA-1202P) expressed by K. lactis, in the absence (maintenance media, MM) and presence of insulin (10 micrograms/mL) (differentiation media, DM), on the biosynthesis of Proteoglycans PGs) in pellet cultures of ATDC5 cells. Data is shown as the % change relative to controls taken to be 100%.
Murine Progenitor cells (cell lines C3H10T1/2 or ATDC5) purchased from RIKEN Cell Bank (Tsukuba, Japan) or human immunoselected Stro-1+ Progenitor cells (Mesoblast Ltd, Melbourne, Australia) were seeded in 2 ml screw-capped sterile centrifuge tubes and the total volume made-up to 1 ml with DMEM-High glucose medium containing 10% FBS. Progenitor cells were then centrifuged at 500 g for 10 min in a swing-out rotor at room temperature. The screw caps were loosened and the tubes placed in an incubator at 37° C., in a 5% CO2/95% air moist atmosphere. The pellets generally formed within 24 hours. Medium was changed daily in the first two days, then once every 2-3 days thereafter. On day 5 the medium was removed and to each tube was added 1 ml with DMEM-High glucose medium containing 10% FBS, 5.0 μCi/ml ^35S-H2SO4 and various concentrations of PPS (0, 0.1, 0.5, 1.0, 2.5, 5.0, 10.0, 20.0, μg/ml) (FIG. 12-15) or rhNC4 (0, 0.1, 0.5, 1.0, 2.0 μg/ml) (FIG. 22). Triplicate cultures were used for all concentration of drugs. The screw caps were loosened and the tubes placed in an incubator at 37° C., in a 5% CO2/95% moist air atmosphere […]. On day 6, 200 μl of stock papain solution [2.5 mg/ml papain, 7.9 mg/ml L-Cystein in papain buffer (0.1 M NaAC, 5 mM EDTA, pH6.0)] was added to each tube. The tubes were tightly capped and incubated at 65° C. for 2 hours. After papain digestion, 4 replicates of 200 μl of papain digested solution were separately transferred to a 96-well micro-titre plate (200 μl/well). The remaining solution was used for the DNA fluorometric assays which were undertaken in triplicate as described above. Biosynthesis of ^35S-GAGs was determined as described for the monolayer cultures and the results expressed as ^35-S-GAGs/μg DNA.
Data is shown as the % of controls taken to be 100%.

[3] = tested on: Primary human progenitor cells; experiment: Progenitor cell proliferation, WST-1 assay; type: cell-based; details: HA alone; day 3 and day 5 cultures; FIG. 20
Method: (§1) FIG. 4. The Effects of Pentosan Polysulfate (PPS) on Human Progenitor cell Proliferation. Primary human progenitor cells were cultured in 24 well plates in growth media supplemented with PPS at the indicated concentrations. At various time intervals (day 1, 3, 6), the growth media was removed and replaced with phenol red free media containing the tetrazolium salt WST-1 for 2 hours at 37° C./5% CO2. WST-1 is cleaved by mitochondrial dehydrogenase in viable cells to produce a formazan dye that can be detected using an ELISA plate reader at a wavelength of 450 nm. Absorbance at 450 nm for each time point is shown for all concentrations of PPS.
FIG. 20. […] At various time intervals (day 3 & 5), the growth media was removed and replaced with phenol red free media containing the tetrazolium salt WST-1 for 2 hours at 37° C./5% CO2. Absorbance at 450 nm for each time point is shown for all concentrations of PPS and HA.
as §1, with “Primary” for “FIG. 4. The Effects of Pentosan Polysulfate (PPS) on Human Progenitor cell Proliferation. Primary”

[4] = tested on: ATDC5 cell; experiment: Kinetics of ATDC5 cell growth over 13 days; type: cell-based, murine; details: rhNC4 (batch PBA-1200P) 5 ug/ml or Insulin 10 ug/ml; 20,000 cells per well at Day 0; FIG. 30
Method: FIG. 30. A bar graph of the kinetics of ATDC5 cell growth induced by rhNC4 (batch PBA-1200P) (5 ug/ml) or Insulin (10 ug/ml) relative to control over 13 days. 20,000 cells per well were seeded at Day 0 (Start) with medium changes every 48 hrs. Insulin treated cultures reached confluence on day 6 and PBA-1200P on day 9. Control cultures also reached confluence on day 9 but in contrast to cultures containing insulin or PBA-1200P ceased to undergo replication.

Q: Dextran polysulfate was tested. Which “proteoglycan synthesis / chondrogenic differentiation” value [1] did it give?
A: downregulate or repress differentiation

Q: What about the “proteoglycan synthesis / chondrogenic differentiation” value ([1]; listed as Dextran Sulfate (DS)) of the same substance?
A: inhibited PG synthesis

Q: And the “proteoglycan synthesis / chondrogenic differentiation” value ([1]; listed as dextran sulfate)?
A: concentration dependent reduction in the production of proteoglycans

Q: Which results are given for Heparin?
A: chondrogenic effect / proteoglycan synthesis [2]: does not exhibit a chondrogenic effect; also recorded: failed to significantly stimulate proteoglycan synthesis; chondrogenic effect / proteoglycan synthesis ([2]; listed as heparin): suppressing chondrogenesis; proteoglycan synthesis ([2]; Heparin 2.5 ugrams/mL, pellet culture): little activity; proteoglycan synthesis ([2]; Heparin at higher concentrations (above 2.5 ugrams/mL)): may cause inhibition

Q: Which results are given for Hyaluronan [HA]?
A: progenitor cell proliferation (WST-1) [3]: absence of any significant stimulatory effect; proteoglycan synthesis (35SO4 incorporation into PGs) [1]: appeared to increase synthesis of proteoglycans but not strongly; proteoglycan synthesis (35SO4 incorporation into PGs) ([1]; listed as hyaluronan (HA)): low level of ^35SO4 incorporation into PGs

Q: Which “day on which cultures reached confluence” value [4] does the source give for Insulin here?
A: 6 days
